Our source for the IC50 values is PubChem BioAssay AID1117348 (Cheminformatics & Chemogenomics Research Group (CCRG), …, 2015).

Calls of active or inactive are those of the source. How the calls were made is not given here.

By IC50 is commonly meant the concentration needed to halve the response being measured.

This experiment relates to HeLa cell cycle, increased S-phase population. Put plainly: HeLa S-phase population increase, dose response, cell-based, IC50 (AID 1117348).
For the compound `O=c1[nH]c(=O)n([C@H]2C[C@H](O)[C@@H](CO)O2)cc1I`, the IC50 was > 10 µM (inactive).

On to `CCc1nc(N)nc(N)c1-c1ccc(Cl)cc1`, for which the IC50 is > 10 µM (inactive).

Regarding `CN(C)CCC=C1c2ccccc2CCc2ccccc21`, the IC50 was > 10 µM (inactive). In the case of `C[C@@H](O[C@H]1OCCN(Cc2n[nH]c(=O)[nH]2)[C@H]1c1ccc(F)cc1)c1cc(C(F)(F)F)cc(C(F)(F)F)c1` it was > 10 µM (inactive); in that of `C[n+]1c2cc(N)ccc2cc2ccc(N)cc21` (tested in a mixture with another compound), 1.96 µM. In the case of `CN(Cc1cnc2nc(N)nc(N)c2n1)c1ccc(C(=O)N[C@@H](CCC(=O)O)C(=O)O)cc1` it was > 10 µM (inactive); in that of `CC(=O)Nc1ccn(C2COC(COC(=O)c3ccccc3)O2)c(=O)n1` (configuration not stated), 0.312 µM; in that of `CC(=O)[C@]1(O)Cc2c(O)c3c(c(O)c2[C@@H](O[C@H]2C[C@H](N)[C@H](O)[C@H](C)O2)C1)C(=O)c1ccccc1C3=O`, > 10 µM (inactive). As for `CC(C)(C)C(=O)OCOP(=O)(COCCn1cnc2c(N)ncnc21)OCOC(=O)C(C)(C)C`, the figure is 0.0608 µM. On to `COc1ccc(-c2ccc3cc(C(=O)O)ccc3c2)cc1C12CC3CC(CC(C3)C1)C2`, for which the IC50 was > 10 µM (inactive).

Turning to `CCc1oc2ccccc2c1C(=O)c1cc(Br)c(O)c(Br)c1`, the IC50 was > 10 µM (inactive). In the case of `CCCCCCCCCCCCNCCNCCNCC(=O)O` it was > 10 µM (inactive); in that of `COC(=O)Nc1nc2ccc(C(=O)C3CC3)cc2[nH]1`, > 10 µM (inactive). In the case of `CC[n+]1c(-c2ccccc2)c2cc(N)ccc2c2ccc(N)cc21` it was > 10 µM (inactive); in that of `COC(=O)[C@H]1[C@H]2C[C@@H]3c4[nH]c5cc(OC)ccc5c4CCN3C[C@H]2C[C@@H](OC(=O)/C=C/c2ccc(O)c(OC)c2)[C@@H]1OC`, > 10 µM (inactive). On to `Oc1ccc([C@H]2CNCc3c2ccc(O)c3O)cc1O`, for which the IC50 is > 10 µM (inactive). On to `CCN(CCCCOC(=O)c1ccc(OC)c(OC)c1)C(C)Cc1ccc(OC)cc1` (configuration not stated), for which the IC50 is > 10 µM (inactive). In the case of `CCCCCCCCCCCCCC[N+](C)(C)C` it was > 10 µM (inactive). As for `COc1cccc2c1C(=O)c1c(O)c3c(c(O)c1C2=O)C[C@@](O)(C(C)=O)C[C@@H]3O[C@H]1C[C@H](N)[C@H](O)[C@H](C)O1`, the figure is 9.6 µM (inactive). For `CCOc1ccc2nc3cc(N)ccc3c(N)c2c1`, the IC50 is > 10 µM (inactive). As for `COC(=O)Nc1nc2ccc(C(=O)c3cccs3)cc2[nH]1`, the figure is > 10 µM (inactive); as for `CCCCCCCCCCCCCCCC[n+]1ccccc1`, > 10 µM (inactive); as for `Oc1c(Cl)cc(Cl)cc1Sc1cc(Cl)cc(Cl)c1O`, > 10 µM (inactive).

For the compound `O=c1[nH]cc(F)c(=O)[nH]1`, the IC50 is > 10 µM (inactive). As for `O[C@@H](CNC[C@H](O)[C@H]1CCc2cc(F)ccc2O1)[C@@H]1CCc2cc(F)ccc2O1`, the IC50 is > 10 µM (inactive).

Consider `CC[C@H](C)C(=O)O[C@H]1C[C@@H](C)C=C2C=C[C@H](C)[C@H](CC[C@@H]3C[C@@H](O)CC(=O)O3)[C@H]21`, for which the IC50 is > 10 µM (inactive).

With `COc1cc(-c2ccc(=O)[nH]n2)ccc1OC(F)F`, the IC50 was > 10 µM (inactive). In the case of `CC(=O)Oc1ccc(C2(c3ccc(OC(C)=O)cc3)Oc3ccccc3NC2=O)cc1` it was > 10 µM (inactive).

For the compound `NCCCC[C@H](N[C@@H](CCc1ccccc1)C(=O)O)C(=O)N1CCC[C@H]1C(=O)O`, the IC50 was > 10 µM (inactive).

In the case of `C[C@]12CC[C@@H]3c4ccc(O)cc4CC[C@H]3[C@@H]1CC[C@@H]2OC(=O)CCC1CCCC1`, the IC50 is > 10 µM (inactive). In the case of `Cc1ccc(Nc2nccc(N(C)c3ccc4c(C)n(C)nc4c3)n2)cc1S(N)(=O)=O` it was > 10 µM (inactive). With `CCN(CC)CCNc1ccc(CO)c2sc3ccccc3c(=O)c12`, the IC50 is > 10 µM (inactive).
